Measured values: patent publication EP0171342A1, “Substituted 2-(1-amino-akylidenyl)1,3-indane diones, process for their preparation and their therapeutical use” (priority 1984, dated 1986)
In brackets after ≈: the same amount, converted by molar mass. Where two headings read alike, the source gives them in different places.

Legend:
souris = assay: Acute toxicity (mortality, LD50) in mice; assay type: in vivo; settings: mouse
[1] = Acute toxicity (mortality, LD50) in mice; assay type: in vivo; settings: in vivo, mouse, read-out: mortalité
[2] = test system: rat Wistar soumis à une surcharge saline; assay: Diuretic activity in selected Wistar rats given a saline overload (modified Wiebelhaus test); assay type: in vivo
Experimental: L'activité diurétique des produits selon l'invention a été également déterminée chez le rat Wistar soumis à une surcharge saline selon une modification du test décrit par Wiebelhaus et coll., Fed. Proc., 1960, 19, 364, en procédant à une sélection des animaux. A la dose de 20 mg/kg, les COR4003, COR4008, COR4009, COR4010, COR4011, COR4012, COR4014, COR4016, COR4021, COR4025 augmentent l'excrétion urinaire volumétrique mesurée au bout de 6 heures de respectivement 56, 54, 65, 95, 73, 54, 33, 40, 99 et 92 %. L'excrétion urinaire du sodium augmente de respectivement 56, 24, 42, 59, 43, 33, 29, 43, 31, 83, 26, 99, 40 % toujours à cette dose pour les COR4003, COR4008, COR4009, COR4010, COR4011, COR4012, COR4014, COR4016, COR4017, COR4021, COR4023, COR4025 et COR4026. Le rapport Na/K demeure la plupart du temps inchangé. Testé dans les mêmes conditions le furosémide, administré à la dose de 20 mg/kg entraine 63% d'augmentation de l'excrétion urinaire volumétrique et 53% d'augmentation de l'excrétion urinaire du sodium.

[3] = test system: rat soumis à une surcharge hydrique; assay: Diuretic activity in rats given a water overload, oral; assay type: in vivo; settings: read-out: facteur multipliant l'excrétion urinaire du sodium
Experimental: L'activité diurétique a été déterminée sur plusieurs modèles expérimentaux. Chez le rat soumis à une surcharge hydrique, administrés par voie orale à la dose de 20 mg/kg, le COR3760, le COR3789, le COR3792, le COR4002, le COR4003, le COR4009, le COR4010, le COR4012 et le COR4014 multiplient l'excrétion urinaire du sodium par respectivement un facteur 2,9 - 3,1 - 5,9 - 2,6 - 7,2 - 3,5 - 3,8 - 2,9 - 2,4. Administrés à la dose de 10 mg/kg, dans les mêmes conditions, les COR3760, COR3789, COR3792, COR4003 et COR4010 multiplient l'excrétion sodique par respectivement 2,3 - 2,9 - 2,8 - 2,4 et 2,5. La spironolactone multiplie quant à elle l'excrétion sodique d'un facteur 3,6 à la dose de 20 mg/kg. Administré à la dose de 5 mg/kg dans les mêmes conditions, le COR3792 multiplie l'excrétion sodique par 3,3. Administré par voie orale chez le rat ou la souris soumis à une surcharge saline, le COR3760 augmente l'excrétion urinaire volumétrique mesurée à la sixième heure de respectivement 49, 119 et 134% chez la souris et 28, 84 et 116% chez le rat après administration de 10, 20, et 40 mg/kg. Le COR3760 a été administré par voie orale au rat soumis à une surcharge hydrique et l'excrétion urinaire volumétrique, le sodium et le potassium excrétés ont été mesurés sur une période de 6 heures; ces paramètres ont varié de respectivement +17%, +102%, +165% à 10 mg/kg, +19%, +147%, +180% à 20 mg/kg et +36%, +415% et +239% à 40 mg/kg; le rapport Na/K passe de 0,56 chez les animaux témoins à 0,4 à 10 mg/kg, 0,49 à 20 mg/kg et 0, 8 à 40 mg/ kg. Au cours d'une seconde expérimentation, le COR3760 a entrainé des variations de +19%, +157%, +70% à 40 mg/kg, +19%, +319%, +90% à 60 mg/kg et +29%, +472% et +77% à 80 mg/kg; le rapport Na/K passe de 0,59 chez les animaux témoins à 0,88 à 40, 1,15 à 60 et 1,88 à 80 mg/kg.

[4] = test system: oedème induit par l'injection intraplantaire de carragénine chez le rat; assay: Anti-inflammatory activity: carrageenan paw oedema in rats; assay type: in vivo; settings: oral 1 h before carrageenan, measured 3 h after
Experimental: L'activité antiinflammatoire a été déterminée chez le rat par la mesure de l'inhibition de l'oedème induit par l'injection intraplantaire de 0,1 ml d'une suspension à 1% de carragénine chez le rat. Les produits à tester sont administrés par voie orale lh avant l'injection de carragénine et la mesure est réalisée 3h après cette injection. Les COR3789, COR3792, COR4003, COR4008 et COR4010 administrés à 10b mg/kg entrainent respectivement 43, 42, 41, 38 et 39% d'inhibition. Administré à 200 mg/kg, le COR3773 entraine 53% d'inhibition. L'aspirine administrée dans les mêmes conditions à 150 mg/kg entraine 40% d'inhibition de l'oedème.

[5] = test system: poumon de cobaye isolé perfusé; assay: Bronchodilator activity: isolated perfused guinea pig lung contracted by methacholine; settings: flow of Tyrode solution, lung contracted by 0,05 microg/ml methacholine; read-out: concentration qui augmente ce débit de 50%
Excerpt: L'activité bronchodilatatrice a été déterminée in vitro par la mesure du débit d'une solution de Tyrode à travers un poumon de cobaye isolé perfusé, contracté par l'addition au fluide de perfusion de 0,05 microg/ml de méthacholine. Les COR3760, COR3789, COR3792, COR4003, COR4008, COR4010 et COR4014 utilisés respectivement aux concentrations de 50, 50, 100, 10, 50, 50 et 10 microg/ml augmentent ce débit de 50%. L'aminophylline entraine cette même activité à la concentration de 100 microg/ml.

[6] = test system: segments d'iléon de cobaye isolés; assay: Anticholinergic activity: acetylcholine-induced contractions of isolated guinea pig ileum; settings: Cavia porcellus; contractions induced by 0,1 microg/ml acetylcholine; read-out: concentration qui inhibe ces contractions de 80%
Excerpt: L'activité anticholinergique a été appréciée par la mesure des contractions induites par 0,1 microg/ml d'acétylcholine sur des segments d'iléon de cobaye isolés. Les COR3760, COR3789, COR3792, COR4003, COR4008, COR4010, COR4014 utilisés respectivement aux concentrations de 50, 25, 25, 50, 25, 10, 25 microg/ml inhibent ces contractions de 80%.

[7] = read-out: augmentation de l'excrétion urinaire du sodium
[8] = rat, water overload, oral, 20 mg/kg
[9] = 6 h, read-out: augmentation de l'excrétion urinaire volumétrique mesurée au bout de 6 heures

| SMILES | change in vivo at 20 mg/kg [2, 7] [%] | mortalité (souris; intraperitoneal, 200 mg/kg) | mortalité (souris; oral, 300 mg/kg) | change in vivo at 20 mg/kg [2, 9] [%] | further results |
| --- | --- | --- | --- | --- | --- |
| CC(=C1C(=O)c2ccccc2C1=O)N(C)C [COR3788, (Diméthylamino-1 éthylidène)-2 indanedione-1,3] | – | – | – | – | mortalité (souris; intraperitoneal, 100 mg/kg): aucune mortalité; mortality ([1]; ip, intraperitoneal, 200 mg/kg): 100%; mortality ([1]; oral, 300 mg/kg): 100% |
| CC(C)NC(=C1C(=O)c2ccccc2C1=O)C(C)C [COR4023, (Isopropylamino-1 isobutylidényl)-2 indanedione-1,3] | 26 | – | – | – | – |
| CC(NC1CCCC1)=C1C(=O)c2ccccc2C1=O [COR4012, (Cyclopentylamino-1 éthylidényl)-2 indanedione-1,3] | 33 | aucune mortalité | aucune mortalité | 54 | response vs control in vivo at 20 mg/kg [3, 8]: 290% |
| CC(=O)Oc1ccccc1C(=O)O [aspirine, reference compound] | – | – | – | – | inhibition de l'oedème ([4]; 150 mg/kg): 40% |
| CC(NC(C)C)=C1C(=O)c2cc(Cl)c(Cl)cc2C1=O [COR4016, Dichloro-5,6 (isopropylamino-1 éthylidényl)-2 indanedione-1,3] | 43 | aucune mortalité | aucune mortalité | 40 | – |
| CC(NC(C)(C)C)=C1C(=O)c2ccccc2C1=O [COR4001, (Tertiobutylamino-1 éthylidényl)-2 indanedione-1,3] | – | – | – | – | mortalité (souris; intraperitoneal, 100 mg/kg): aucune mortalité; mortalité (souris; oral, 100 mg/kg): aucune mortalité; mortality ([1]; ip, intraperitoneal, 200 mg/kg): 100%; mortality ([1]; oral, 300 mg/kg): 100% |
| CCC(NC(C)C)=C1C(=O)c2ccccc2C1=O [COR4025, (Isopropylamino-1 propylidényl)-2 indanedione-1,3] | 99 | – | – | 92 | – |
| CC(NC1CCCCC1)=C1C(=O)c2ccccc2C1=O [COR4013, (Cyclohexylamino-1 éthylidényl)-2 indanedione-1,3] | – | aucune mortalité | aucune mortalité | – | – |
| CCNC(C)=C1C(=O)c2ccc(Cl)cc2C1=O [COR3774, Chloro-5 (éthylamino-1 éthylidène)-2 indanedione-1,3] | – | aucune mortalité | aucune mortalité | – | – |
| CC(=O)NS(=O)(=O)c1cc2c(cc1Cl)C(=O)C(=C(C)NC(C)C)C2=O [COR4015, N-acétylsulfonamido-6 chloro-5 (isopropylamino-1 éthylidényl)-2 indanedione-1,3] | – | aucune mortalité | aucune mortalité | – | – |
| CCCC(NC)=C1C(=O)c2ccccc2C1=O [COR4017, (Méthylamino-1 butylidényl)-2 indanedione-1,3] | 31 | – | – | – | – |
| CCNC(C)=C1C(=O)c2cc(Cl)c(Cl)cc2C1=O [COR4007, Dichloro-5,6 (éthylamino-1 éthylidényl)-2 indanedione-1,3] | – | aucune mortalité | aucune mortalité | – | – |
| CC(=O)S[C@@H]1CC2=CC(=O)CC[C@]2(C)[C@H]2CC[C@@]3(C)[C@@H](CC[C@@]34CCC(=O)O4)[C@H]12 [spironolactone, reference compound] | – | – | – | – | response vs control in vivo at 20 mg/kg ([3]; Rattus norvegicus, po): 360% |
| NS(=O)(=O)c1cc(C(=O)O)c(NCc2ccco2)cc1Cl [furosémide, reference compound] | 53 | – | – | 63 | – |
| Cn1c(=O)c2[nH]cnc2n(C)c1=O [aminophylline, reference compound] | – | – | – | – | EC50 [5]: 100 µg/mL (≈ 555 µM) |
| CNC(=C1C(=O)c2ccccc2C1=O)c1ccccc1 [COR4004, (Alpha-méthylamino benzylidényl)-2 indanedione-1,3] | – | aucune mortalité | aucune mortalité | – | – |
| CNC(C)=C1C(=O)c2cc(Cl)c(Cl)cc2C1=O [COR4006, Dichloro-5,6 (méthylamino-1 éthylidényl)-2 indanedione-1,3] | – | aucune mortalité | aucune mortalité | – | – |
| CCNC(CC)=C1C(=O)c2ccccc2C1=O [COR4021, (Ethylamino-1 propylidényl)-2 indanedione-1,3] | 83 | – | – | 99 | – |
| CC(NCC(C)C)=C1C(=O)c2ccccc2C1=O [COR4008, (Isobutylamino-1 éthylidényl)-2 indanedione-1,3] | 24 | aucune mortalité | aucune mortalité | 54 | EC50 [5]: 50 µg/mL (≈ 206 µM); IC80 [6]: 25 µg/mL (≈ 103 µM); inhibition de l'oedème ([4]; dose 10b mg/kg [sic]): 38% |
| CC(N)=C1C(=O)c2ccccc2C1=O [COR4026, (Amino-1 éthylidényl)-2 indanedione-1,3] | 40 | – | – | – | – |
| CC(NC1CC1)=C1C(=O)c2ccccc2C1=O [COR4014, (Cyclopropylamino-1 éthylidényl)-2 indanedione-1,3] | 29 | aucune mortalité | aucune mortalité | 33 | EC50 [5]: 10 µg/mL (≈ 44 µM); response vs control in vivo at 20 mg/kg [3, 8]: 240%; IC80 [6]: 25 µg/mL (≈ 110 µM) |
| CNC(C)=C1C(=O)c2ccc([N+](=O)[O-])cc2C1=O [COR4002, Nitro-5 (méthylamino-1 éthylidényl)-2 indanedione-1,3] | – | – | – | – | mortalité (souris; intraperitoneal, 100 mg/kg): aucune mortalité; mortalité (souris; oral, 100 mg/kg): aucune mortalité; mortality ([1]; ip, intraperitoneal, 200 mg/kg): 100%; mortality ([1]; oral, 300 mg/kg): 100%; response vs control in vivo at 20 mg/kg [3, 8]: 260% |
